Reference: patent publication US10718770B2, “Methods for screening compounds for treating or preventing a viral infection or a virus-related condition” (ABIVAX, priority 2015, dated 2020)

Assays:
[1] = test system: HIV RNA splicing in infected PBMCs; test: Sequence capture and 454 pyrosequencing of HIV RNA in infected PBMCs; format: cell-based, HIV-1
Method: To test whether Compound 1 influences the splicing of HIV RNA in infected cells, an array-based sequence capture was performed using a customized library probes targeting HIV sequences to get rid of cellular RNA. The probes were used to capture cDNAs prepared from infected treated and untreated PBMCs. After double capture, libraries were prepared and sequenced using 454 pyrosequencing (according to GS junior method manual). The average size of the reads around 400 bp allowed unambiguous assembly of viral genome from untreated sample (after 3 and 6 days of infection) using reads that were not mapped to human genome (hg19). All sequencing data were analysed using gsnap, as detailed in Wu et al. (Fast and SNP-tolerant detection of complex variants and splicing in short reads. Bioinformatics 26, 873-881 (2010)).

[2] = test system: primary macrophages; test: Cell viability of primary macrophages under treatment; format: cell-based, human; details: data not shown
[3] = test system: Rev-mediated export of viral RNA; test: HIV reporter system (MS2-GFP) in HeLa cells: Rev-mediated export of viral RNA; format: cell-based; details: in the absence of Rev, data not shown
Text: FIG. 8. Compound 1 influences Rev-mediated HIV RNA biogenesis and export. A) Schematic representation of the HIV-1 reporter gene B) Visualization of GFP-MS2-Bound RNA in HeLa cells expressing tat, MS2-GFP and HIV-reporter transcripts in non transfected or transfected cells with Rev. Rev-transfected cells were untreated (DMSO) or treated with Compound 1. Arrow indicates transcription site. C) Quantitation of images corresponding to untreated (DMSO) or treated (Compound 1) in (B), in terms of: total GFP (upper panel) expressed in RFU or Relative Fluorescence Units; in the nucleoplasm (middle panel) expressed in Number of Foci in Rev-transfected cells; or at the start site (lower panel) expressed as a percentage of nuclei with a starting transcription point. Box-plots show the average GFP intensity (foci numbers or starting transcription point numbers) of Rev-transfected HeLa cells for each condition. Whiskers correspond to the minimum and maximum, boxes, to the 25-75 percentiles and the band inside the box, to the median. […]
Cells plated on cover slips were fixed for 10 min in 3.7% formaldehyde (in PBS) followed by a 2-min permeabilization with 0.1% Triton X-100 (in PBS) and incubation in PBS containing 0.1% bovine serum albumin. […] Cells were washed in PBS mounted with DAKO mounting medium and observed under the fluorescence microscope. […]

FC(F)(F)Oc1ccc(Nc2ccc3cccc(Cl)c3n2)cc1 [Compound 1, 8-chloro-N-(4-(trifluoromethoxy)phenyl)quinolin-2-amine]
coverage of viral genome ([1]; 3 days post infection): 4149 reads | fraction of reads corresponding to splice junctions ([1]; 3 days post-infection): 17.4% | fraction of reads corresponding to splice junctions ([1]; 6 days post-infection): 13.3% | number of reads ([1]; 6 days post-infection): 20 585 | cell viability [2]: not decreased | effect on reporter cells [3]: no effect
